Laboratory results taken from PubChem BioAssay (NCI).
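Results reflect a 48-hour exposure of cells in 96-well plates to compound at five concentrations. GI50 = concentration required for 50% inhibition of growth. At the TGI there is no net growth.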

Key:
Assay in all cases: DTP human tumour cell line panel, 48 h
MCF7 breast = tested on: MCF7 breast
OVCAR-4 ovarian = tested on: OVCAR-4 ovarian
UACC-257 melanoma = tested on: UACC-257 melanoma
MALME-3M melanoma = tested on: MALME-3M melanoma
RPMI-8226 leukemia = tested on: RPMI-8226 leukemia
OVCAR-5 ovarian = tested on: OVCAR-5 ovarian
NCI-H460 lung = tested on: NCI-H460 lung
UACC-62 melanoma = tested on: UACC-62 melanoma
786-0 renal = tested on: 786-0 renal
OVCAR-8 ovarian = tested on: OVCAR-8 ovarian

SMILES | GI50 (MCF7 breast) [µM] | TGI (MCF7 breast) [µM] | GI50 (OVCAR-4 ovarian) [µM] | TGI (OVCAR-4 ovarian) [µM] | GI50 (UACC-257 melanoma) [µM] | TGI (UACC-257 melanoma) [µM] | GI50 (MALME-3M melanoma) [µM] | TGI (MALME-3M melanoma) [µM] | GI50 (RPMI-8226 leukemia) [µM] | TGI (RPMI-8226 leukemia) [µM] | GI50 (OVCAR-5 ovarian) [µM] | TGI (OVCAR-5 ovarian) [µM] | GI50 (NCI-H460 lung) [µM] | TGI (NCI-H460 lung) [µM] | GI50 (UACC-62 melanoma) [µM] | TGI (UACC-62 melanoma) [µM] | GI50 (786-0 renal) [µM] | TGI (786-0 renal) [µM] | GI50 (OVCAR-8 ovarian) [µM] | TGI (OVCAR-8 ovarian) [µM]
COc1cc(/C=C\[N+](=O)[O-])ccc1O | 1.63 | 4.28 | 3.86 | 14.1 | 2.42 | 6.77 | 1.91 | 4.91 | 2.2 | 6.11 | 3.94 | 14.5 | 3.51 | 13.7 | 1.78 | 3.99 | 1.81 | 3.94 | 3.21 | 12.1
C=C1C(O)C2CCC(C)(C)C(=O)C2=C(CC(C)C)C12CC2 (stereo not given) | 35 | > 100 | > 100 | > 100 | 88 | > 100 | 35.6 | > 100 | 22.3 | 56.8 | > 100 | > 100 | 32.8 | > 100 | 90.8 | > 100 | > 100 | > 100 | > 100 | > 100
O=C(CCN1CCN(c2cnc3ccccc3n2)CC1)c1csc2ccccc12 | 18.1 | 48.6 | 28.2 | 92.5 | > 100 | > 100 | 24.9 | 69.1 | 9.4 | > 100 | > 100 | > 100 | > 100 | > 100 | 49.5 | > 100 | 28.4 | 79.5 | > 100 | > 100
O=C(NNc1nc2c(F)cccc2n2cccc12)c1cnccn1 | 0.412 | 29.6 | 0.469 | 11 | 1.15 | 8.31 | 1.63 | > 77.1 | 0.418 | 9.88 | 1.51 | > 61.1 | 0.331 | 11 | 0.477 | 6.28 | 0.426 | 19.3 | 0.414 | > 81.6
CC(CO)(CO)N=Cc1cc(I)cc(I)c1O |  | 46.3 |  | 37.2 |  | 45.1 |  | 28.5 |  | > 100 |  | 53.7 |  | 55 |  | 30.7 |  | 30.9 |  | 48.5
N/C(CC(=O)Nc1cc(C(F)(F)F)ccc1Cl)=N\O |  | > 100 |  | > 100 |  | > 100 |  | > 100 |  | > 100 |  | > 100 |  | > 100 |  | > 100 |  | > 100 |  | > 100
Cc1cc([C@@H](C)Nc2ccccc2C(=O)O)c2nc(N3CCOCC3)cc(=O)n2c1 | 3.36 | > 10 | > 10 | > 10 | > 10 | > 10 | > 10 | > 10 | > 10 | > 10 | > 10 | > 10 | > 10 | > 10 | 0.627 | > 10 | 1.23 | > 10 | > 10 | > 10
CN=C(N)N/N=C(\c1ccccc1)c1ccc(Br)cc1 | 0.268 | 8.33 | 0.713 | 15.2 | 0.913 | 12.9 | 1.13 | 4.24 | 0.441 | 3.13 | 0.494 | 5.62 | 0.355 | 9.05 | 0.859 | 9.16 | 0.523 | 4.91 | 0.369 | 5.16
NC(N)=N/N=C(/c1ccccc1)c1ccc(F)cc1 | 0.296 | 12.1 | 1.01 | 37.7 | 2.94 | 32.8 | 0.368 | 22 | 0.558 | 21.6 | 1.03 | 18.7 | 0.342 | 10.8 | 0.421 | 15.5 | 0.638 | 13.9 | 0.593 | > 35.1
CNC(=O)c1ccccc1CC1(O)c2ccccc2Oc2ccccc21 | 5.08 | 44.5 | 27.8 | > 100 | 33.8 | > 100 | 22.8 | > 100 | 26.6 | 91.7 | 29.1 | > 100 | 25 | 82.6 | 10.4 | 52.6 | 20.3 | 46.4 | 29.1 | > 100
COc1cc(-n2cc(-c3ccc(Cl)c(Cl)c3)nc2SCc2ccccc2)cc(OC)c1OC | > 100 | > 100 | > 100 | > 100 | > 100 | > 100 | > 100 | > 100 | > 100 | > 100 | > 100 | > 100 | > 100 | > 100 | > 100 | > 100 | > 100 | > 100 | > 100 | > 100
COc1cc(C(=O)NC2c3ccccc3-c3ccccc32)c(N)cc1OCc1ccccc1 | 42.8 | > 100 | 5.16 | 32.2 | 58.7 | > 100 | 26.6 | > 76.6 | 97.5 | > 100 | 52.5 | > 100 | 35.1 | > 100 | 20.1 | 67.5 | 21.4 | > 60.8 | 24.2 | > 100
O=C(Nc1nc2ccccc2s1)OCC(F)(F)F | > 100 | > 100 | > 100 | > 100 | > 100 | > 100 | > 100 | > 100 | > 100 | > 100 | > 100 | > 100 | > 100 | > 100 | > 100 | > 100 | > 100 | > 100 | > 100 | > 100
O=C1/C(=C/c2ccc(F)cc2)CCOc2ccc([N+](=O)[O-])cc21 | 2.91 | 9.29 | 16.7 | 36.5 | 2.62 | 6.29 | 2.27 | 5.79 | 0.862 | 3.14 | 2 | 4.62 | 17.4 | 34.9 | 2.19 | 4.01 | 1.8 | 3.5 | 2.68 | 9.24
